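Assay format: 96-well plates, 48-hour exposure. The concentration for 50% growth inhibition is given as GI50. At the TGI there is no net growth.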
What was measured:
Assay in all cases: DTP human tumour cell line panel, 48 h
A498 renal = test system: A498 renal
M14 melanoma = test system: M14 melanoma
SNB-19 CNS = test system: SNB-19 CNS
SF-268 CNS = test system: SF-268 CNS
786-0 renal = test system: 786-0 renal
MALME-3M melanoma = test system: MALME-3M melanoma
NCI-H522 lung = test system: NCI-H522 lung
CAKI-1 renal = test system: CAKI-1 renal
HS 578T breast = test system: HS 578T breast
NCI/ADR-RES ovarian = test system: NCI/ADR-RES ovarian
EKVX NSCLC = test system: EKVX NSCLC
HCC-2998 colon = test system: HCC-2998 colon
HCT-116 colon = test system: HCT-116 colon
SW-620 colon = test system: SW-620 colon
SF-295 CNS = test system: SF-295 CNS
SK-MEL-5 melanoma = test system: SK-MEL-5 melanoma
HL-60(TB) leukemia = test system: HL-60(TB) leukemia

Compound	TGI (A498 renal)	TGI (M14 melanoma)	TGI (SNB-19 CNS)	TGI (SF-268 CNS)	TGI (786-0 renal)	TGI (MALME-3M melanoma)	TGI (NCI-H522 lung)	TGI (CAKI-1 renal)	TGI (HS 578T breast)	TGI (NCI/ADR-RES ovarian)	TGI (EKVX NSCLC)	TGI (HCC-2998 colon)	TGI (HCT-116 colon)	TGI (SW-620 colon)	TGI (SF-295 CNS)	TGI (SK-MEL-5 melanoma)	TGI (HL-60(TB) leukemia)	GI50 (SNB-19 CNS)
C=CCOc1ccc(/C(N=Nc2ccc(C)cc2)=N/NC(=O)c2ccccc2)cc1OC	72 µM	58.3 µM	> 100 µM	> 100 µM	> 100 µM	76.9 µM	49.6 µM	> 100 µM	87.6 µM	> 100 µM	> 100 µM	76.5 µM	82.6 µM	> 100 µM	> 100 µM	31.9 µM	29 µM	
Cc1cc(N)ccc1N=Nc1ccc(S(=O)(=O)CCOS(=O)(=O)O)cc1	31.1 µM	18.4 µM	19.3 µM	21.7 µM	6.55 µM	20.5 µM	0.773 µM	8.61 µM	35.5 µM	> 100 µM	> 53 µM	6.74 µM	12.6 µM	16.1 µM	9.21 µM	2.23 µM	> 38.1 µM	
O=C(Nc1ccc(Cl)cc1)NS(=O)(=O)c1coc2ccccc2c1=O	> 10 µM	> 10 µM	> 10 µM	> 10 µM	> 10 µM	> 10 µM	> 10 µM	> 10 µM	> 10 µM	> 10 µM	> 10 µM	> 10 µM	> 10 µM	> 10 µM	> 10 µM	> 10 µM	> 10 µM	
CCN(CC)C(=S)SNc1ccc(S(N)(=O)=O)cc1	> 100 µM	> 67.7 µM	> 100 µM	> 100 µM	> 71 µM	97.3 µM	29.5 µM	> 90.6 µM	> 100 µM	> 100 µM	> 100 µM	> 100 µM	> 100 µM	19.3 µM	> 100 µM	> 100 µM	> 100 µM	
CC1=C(C)CC(C#N)(C#N)C(C#N)(C#N)C1	> 10 µM	> 10 µM	> 10 µM	> 10 µM	> 8.08 µM	> 10 µM	> 2.72 µM	> 10 µM	> 10 µM	> 10 µM	> 10 µM	> 10 µM	> 7.32 µM	> 5.42 µM	> 10 µM	> 10 µM	> 5 µM	
Cc1cc(=O)oc2cc(SC(=O)N(C)C)ccc12	> 100 µM	> 100 µM	> 100 µM	> 100 µM	> 100 µM	> 100 µM	> 100 µM	> 100 µM	> 100 µM	> 100 µM	> 100 µM	> 100 µM	> 100 µM	> 100 µM	> 100 µM	> 100 µM	> 100 µM	
O=C(/C=C/c1ccc(O)c(O)c1)OCc1ccccc1	50.5 µM	48.2 µM	97.6 µM	45.8 µM	84.3 µM	80.4 µM	7.77 µM	67.3 µM	> 100 µM	72.2 µM	> 100 µM	> 100 µM	30.5 µM	> 100 µM	57.4 µM	24.3 µM	4.66 µM	
CC1(C)O[C@H]([C@H](O)c2nnc3ccc(Cl)nn23)[C@@H]([C@H]2COC(C)(C)O2)O1	> 100 µM	> 100 µM	> 100 µM	> 100 µM	> 100 µM	> 100 µM	> 100 µM	> 100 µM	> 100 µM	> 100 µM	> 100 µM	> 100 µM	> 100 µM	> 100 µM	> 100 µM	> 100 µM	> 100 µM	
COC(=O)C(Cc1ccccc1)NC(=O)C(CCC(=O)OCc1ccccc1)NC(=O)OC(C)(C)C (centres undefined)	> 100 µM	> 100 µM	> 100 µM	> 100 µM	> 100 µM	> 100 µM	> 100 µM	> 100 µM	> 100 µM	> 100 µM	> 100 µM	> 100 µM	> 100 µM	> 100 µM	> 100 µM	> 100 µM	> 100 µM	
O=C1OC2C(O)COC2(O)C1(O)C(C[N+](=O)[O-])c1ccc(Cl)cc1 (centres undefined)	12.3 µM	13.6 µM	28.9 µM	31.3 µM	3.45 µM	30.3 µM	23.7 µM	30.1 µM	> 52.9 µM	72 µM	51.4 µM	13.4 µM	3.34 µM	14.1 µM	27.9 µM	21.6 µM	10.5 µM	
CCOC(=O)N1CC2(C)C=CC1C(C(=O)OC)C2 (centres undefined)	> 100 µM	> 100 µM	> 100 µM	> 100 µM	> 100 µM	> 100 µM	> 100 µM	> 100 µM	> 100 µM	> 100 µM	> 100 µM	> 100 µM	> 100 µM	> 100 µM	> 100 µM	> 100 µM	> 100 µM	
CCC(=O)C1(N2CCOCC2)CCN(CCCC(=O)c2ccc(F)cc2)CC1	> 100 µM	> 100 µM	> 100 µM	> 100 µM	> 100 µM	> 100 µM	> 100 µM	> 100 µM	> 100 µM	> 100 µM	> 100 µM	> 100 µM	> 100 µM	> 100 µM	> 100 µM	> 100 µM	> 100 µM	
CC(C)/C(Cl)=N/OC(=O)Nc1cccc(C(F)(F)F)c1	37.1 µM	13.3 µM	34 µM	> 64.9 µM	7.52 µM	3.66 µM	0.951 µM	3.14 µM	> 69.4 µM	16.7 µM	7.1 µM	30 µM	24.7 µM	1.8 µM	33 µM	21.3 µM	2.22 µM	
O=C(Nc1cccc(NC(=O)C(=O)C2CCC3=C(Sc4ccccc4N3)C2=O)n1)C(=O)C1CCC2=C(Sc3ccccc3N2)C1=O (centres undefined)	> 100 µM	> 100 µM	> 100 µM	> 100 µM	> 100 µM	> 100 µM	> 100 µM	> 100 µM	> 100 µM	> 100 µM	> 100 µM	> 100 µM	> 100 µM	> 100 µM	> 100 µM	> 100 µM	> 100 µM	
CCCCCN1CCN(c2ncccn2)CC1	> 100 µM	> 100 µM	> 100 µM	> 100 µM	> 100 µM	> 100 µM	> 100 µM	> 100 µM	> 100 µM	> 100 µM	> 100 µM	> 100 µM	> 100 µM	> 100 µM	> 100 µM	> 100 µM	> 100 µM	
C/C(=C/c1ccccc1)CN(C(=O)/C=C\Sc1ccccc1)C(C)(C)C	> 100 µM	> 100 µM	> 100 µM	> 38.1 µM	> 100 µM	> 100 µM	> 46.4 µM	> 100 µM	> 47.8 µM	> 100 µM	> 100 µM	> 100 µM	> 100 µM	> 100 µM	> 100 µM	> 100 µM	> 100 µM	
NC(=O)NC(=O)CCC(NS(=O)(=O)c1ccccc1)C(=O)NC(N)=O (centres undefined)	> 100 µM	> 100 µM	> 100 µM	> 100 µM	> 100 µM	> 100 µM	> 100 µM	> 100 µM	> 100 µM	> 100 µM	> 100 µM	> 100 µM	> 100 µM	> 100 µM	> 100 µM	> 100 µM	> 100 µM	
CCCc1cc(=O)oc2c(C=O)c(O)cc(O)c12	40.6 µM	52.7 µM	87.1 µM	76.5 µM	> 100 µM	42.1 µM	41.9 µM	75.8 µM	61.2 µM	73 µM	56.3 µM	33.6 µM	47.2 µM	56.4 µM	85 µM	37.8 µM	42.7 µM	
O=C1Oc2ccccc2C(=O)/C1=C/N1C(=O)/C(=C/c2ccc3c(c2)OCO3)SC1=S	13.2 µM	31.9 µM	37.1 µM	32.6 µM	> 54.8 µM	44.8 µM	45.2 µM	36.5 µM	14.9 µM	48.4 µM	> 100 µM	28.9 µM	> 51.2 µM	43.5 µM	35 µM	29.8 µM	> 64.4 µM	12.6 µM

Source: PubChem BioAssay (NCI)
